Test results as given in patent US11666558B2, “Methods of treating intraocular pressure with activators of Tie-2” (EyePoint Pharmaceuticals, Inc., priority 2015, dated 2023).
Several values for one entry are separate records, joined by “and”; a condition that tells them apart may be missing. Identical values can stand only once. Like-named read-outs stand apart in the source and are kept apart here.

Experiment: Ocular tissue concentrations (aqueous humor, vitreous humor, iris, retina, choroid, cornea) after topical ocular, subcutaneous and intravitreal administration
Format: in vivo, New Zealand White rabbits
Experimental: To measure the concentration of Compound 1 in plasma and ocular tissues following topical ocular, subcutaneous, and intravitreal administration, New Zealand White rabbits were administered Compound 1, and plasma and ocular samples were collected at pre-determined time points. Compound 1 formulations were prepared fresh on each day of dosing.
Ocular tissue samples from both eyes of each animal were collected and weights were recorded. Plasma and ocular tissue sample concentrations of Compound 1 were determined by LC-MS/MS.
New Zealand White rabbits weighing 2.5 to 3.5 kg were used on this study. Rabbits were housed one per cage. Animals were not fasted and only healthy animals with no ocular illness were used. Two rabbits per group were sacrificed at each of four ocular tissue sampling time points for a total of eight rabbits per group.
Animals were anesthetized for ocular (topical) and intravitreal dosing following the 12IA7 IACUC protocol. Each rabbit received a bolus dose of test formulation either via topical ocular administration 3 times daily on Days 1 and 2 (at 0, 6, and 12 hours), and once on Day 3 (at 0 hours) into both eyes; via intravitreal administration into both eyes once on Day 1 (at 0 hours); or via subcutaneous administration 2 times daily on Days 1 and 2 (at 0 and 8 hours) and once daily on Day 3 (at 0 hours). Doses were given within an approximately 1 hour window each day where applicable.
On Day 1, for intravitreal administration, or on Day 3, for topical ocular and subcutaneous administration, at the appropriate ocular tissue collection time points, animals were euthanized and both eyes were enucleated immediately. Following enucleation, each eye was rinsed with phosphate-buffered saline. Ocular tissue samples from both eyes of each animal were collected at predetermined time points and weights were recorded. All the samples were frozen immediately on dry ice, and stored at −60° C. to −80° C. pending bioanalysis.
An LC-MS/MS method was developed for the determination of Compound 1 in rabbit aqueous tissues (plasma, aqueous and vitreous humor) and solid ocular tissue samples. A pre-study standard curve was analyzed to determine the specificity, range, and lower limit of quantitation of the method. Plasma and tissue homogenate study samples were extracted and analyzed. All the samples were treated identically to the standards.
One eight-point standard curve was used in each analytical batch. To be accepted, each batch must have had at least five of eight standards with accuracy within ±20% of nominal, except at the lower limit of quantification (LLOQ), where ±25% was acceptable.
Concentration versus time data is plotted in FIGS. 3-16. All data are expressed as ng/g of the free drug. Samples that were below the limit of quantitation (0.2 ng/mL) were not used in the calculation of averages.

[1] = Group 3 subcutaneous 5 mg/kg, 0.5 hr
[2] = Group 3 subcutaneous 5 mg/kg, 1.0 hr
[3] = Group 3 subcutaneous 5 mg/kg, 2.0 hr
[4] = Group 3 subcutaneous 5 mg/kg, 4.0 hr
[5] = Group 5 intravitreal 2.5 mg per eye, 6.0 hr
[6] = Group 5 intravitreal 2.5 mg per eye, 24 hr
[7] = Group 5 intravitreal 2.5 mg per eye, 48 hr
[8] = Group 5 intravitreal 2.5 mg per eye, 72 hr

COC(=O)N[C@@H](Cc1ccccc1)C(=O)N[C@@H](Cc1ccc(NS(=O)(=O)O)cc1)c1csc(-c2cccs2)n1 [Compound 1 free acid]
Average Peak Concentration, Vitreous Humor (Group 3 subcutaneous 5 mg/kg/dose, suspension): 0.40 ng/g
aqueous humor Conc., individual eyes (OD, OS) [1]: BLOQ (Below the limit of quantitation (0.2 ng/mL)) (2×) and 0.519 ng/mL and 1.90 ng/mL
vitreous humor Conc., individual eyes (OD, OS) [1]: BLOQ (Below the limit of quantitation (0.2 ng/mL)) and 0.261 ng/mL
aqueous humor Conc., individual eyes (OD, OS) [2]: 0.485 ng/mL and 0.684 ng/mL and 0.229 ng/mL and 0.257 ng/mL
vitreous humor Conc., individual eyes (OD, OS) [2]: BLOQ (Below the limit of quantitation (0.2 ng/mL))
aqueous humor Conc., individual eyes (OD, OS) [3]: BLOQ (Below the limit of quantitation (0.2 ng/mL)) and 0.594 ng/mL
vitreous humor Conc., individual eyes (OD, OS) [3]: BLOQ (Below the limit of quantitation (0.2 ng/mL))
aqueous humor Conc., individual eyes (OD, OS) [4]: 0.229 ng/mL and BLOQ (Below the limit of quantitation (0.2 ng/mL))
vitreous humor Conc., individual eyes (OD, OS) [4]: BLOQ (Below the limit of quantitation (0.2 ng/mL))
aqueous humor Conc., individual eyes (OD, OS) [5]: 34200 ng/mL and 15700 ng/mL and 23400 ng/mL and 32300 ng/mL
vitreous humor Conc., individual eyes (OD, OS) [5]: 592000 ng/mL and 625000 ng/mL and 432000 ng/mL and 270000 ng/mL
aqueous humor Conc., individual eyes (OD, OS) [6]: 3890 ng/mL and 6480 ng/mL and 5540 ng/mL and 1170 ng/mL
vitreous humor Conc., individual eyes (OD, OS) [6]: 528000 ng/mL and 491000 ng/mL and 320000 ng/mL
aqueous humor Conc., individual eyes (OD, OS) [7]: 476 ng/mL and 632 ng/mL and 1220 ng/mL and 1330 ng/mL
vitreous humor Conc., individual eyes (OD, OS) [7]: 75900 ng/mL and 148000 ng/mL and 68300 ng/mL and 99000 ng/mL
aqueous humor Conc., individual eyes (OD, OS) [8]: 145 ng/mL and 172 ng/mL and 94.1 ng/mL and 70.2 ng/mL
vitreous humor Conc., individual eyes (OD, OS) [8]: 96500 ng/mL and 101000 ng/mL and 16200 ng/mL
concentration at 6 hr (New Zealand White, rabbit, aqueous humor, other: intravitreal, 2.5 mg per eye, Group 5 intravitreal 2.5 mg per eye, 6.0 hr, read-out: aqueous humor Average Conc.): 26400 ng/g
concentration at 24 hr (New Zealand White, rabbit, aqueous humor, other: intravitreal, 2.5 mg per eye, Group 5 intravitreal 2.5 mg per eye, 24 hr, read-out: aqueous humor Average Conc.): 4270 ng/g
concentration at 48 hr (New Zealand White, rabbit, aqueous humor, other: intravitreal, 2.5 mg per eye, Group 5 intravitreal 2.5 mg per eye, 48 hr, read-out: aqueous humor Average Conc.): 915 ng/g
concentration at 72 hr (New Zealand White, rabbit, aqueous humor, other: intravitreal, 2.5 mg per eye, Group 5 intravitreal 2.5 mg per eye, 72 hr, read-out: aqueous humor Average Conc.): 120 ng/g
concentration at 0.5 h (New Zealand White, rabbit, aqueous humor, subcutaneous, 5 mg/kg, Group 3 subcutaneous 5 mg/kg, 0.5 hr, read-out: aqueous humor Average Conc.): 1.21 ng/g
concentration at 1 h (New Zealand White, rabbit, aqueous humor, subcutaneous, 5 mg/kg, Group 3 subcutaneous 5 mg/kg, 1.0 hr, read-out: aqueous humor Average Conc.): 0.41 ng/g
concentration at 2 hr (New Zealand White, rabbit, aqueous humor, subcutaneous, 5 mg/kg, Group 3 subcutaneous 5 mg/kg, 2.0 hr, read-out: aqueous humor Average Conc.): 0.66 ng/g
concentration at 2 hr (New Zealand White, rabbit, aqueous humor, subcutaneous, 5 mg/kg, Group 3 subcutaneous 5 mg/kg, 2.0 hr, read-out: aqueous humor Conc., individual eyes (OD, OS)): 0.601 ng/mL
concentration at 4 hr (New Zealand White, rabbit, aqueous humor, subcutaneous, 5 mg/kg, Group 3 subcutaneous 5 mg/kg, 4.0 hr, read-out: aqueous humor Average Conc.): 0.51 ng/g
concentration at 4 hr (New Zealand White, rabbit, aqueous humor, subcutaneous, 5 mg/kg, Group 3 subcutaneous 5 mg/kg, 4.0 hr, read-out: aqueous humor Conc., individual eyes (OD, OS)): 0.209 ng/mL
concentration at 6 h (New Zealand White, rabbit, vitreous humor, other: intravitreal, 2.5 mg per eye, Group 5 intravitreal 2.5 mg per eye, 6.0 hr, read-out: vitreous humor Average Conc.): 480000 ng/g
concentration at 24 h (New Zealand White, rabbit, vitreous humor, other: intravitreal, 2.5 mg per eye, Group 5 intravitreal 2.5 mg per eye, 24 hr, read-out: vitreous humor Average Conc.): 409000 ng/g
concentration at 24 h (New Zealand White, rabbit, vitreous humor, other: intravitreal, 2.5 mg per eye, Group 5 intravitreal 2.5 mg per eye, 24 hr, read-out: vitreous humor Conc., individual eyes (OD, OS)): 296000 ng/mL
concentration at 48 h (New Zealand White, rabbit, vitreous humor, other: intravitreal, 2.5 mg per eye, Group 5 intravitreal 2.5 mg per eye, 48 hr, read-out: vitreous humor Average Conc.): 97800 ng/g
concentration at 72 h (New Zealand White, rabbit, vitreous humor, other: intravitreal, 2.5 mg per eye, Group 5 intravitreal 2.5 mg per eye, 72 hr, read-out: vitreous humor Average Conc.): 65400 ng/g
concentration at 0.5 hr (New Zealand White, rabbit, vitreous humor, subcutaneous, 5 mg/kg, Group 3 subcutaneous 5 mg/kg, 0.5 hr, read-out: vitreous humor Average Conc.): 0.4 ng/g
concentration at 0.5 hr (New Zealand White, rabbit, vitreous humor, subcutaneous, 5 mg/kg, Group 3 subcutaneous 5 mg/kg, 0.5 hr, read-out: vitreous humor Conc., individual eyes (OD, OS)): 0.227 ng/mL
concentration at 1 hr (New Zealand White, rabbit, vitreous humor, subcutaneous, 5 mg/kg, Group 3 subcutaneous 5 mg/kg, 1.0 hr, read-out: vitreous humor Average Conc.): 0.41 ng/g
concentration at 1 hr (New Zealand White, rabbit, vitreous humor, subcutaneous, 5 mg/kg, Group 3 subcutaneous 5 mg/kg, 1.0 hr, read-out: vitreous humor Conc., individual eyes (OD, OS)): 0.407 ng/mL
concentration at 4 hr (New Zealand White, rabbit, vitreous humor, subcutaneous, 5 mg/kg, Group 3 subcutaneous 5 mg/kg, 4.0 hr, read-out: vitreous humor Average Conc.): 0.41 ng/g
concentration at 4 hr (New Zealand White, rabbit, vitreous humor, subcutaneous, 5 mg/kg, Group 3 subcutaneous 5 mg/kg, 4.0 hr, read-out: vitreous humor Conc., individual eyes (OD, OS)): 0.408 ng/mL
